The term IC50 denotes the concentration that inhibits the measured activity by half.

Where two headings read alike, the source gives them in different places.

One data set has as its target Cathepsin L (Homo sapiens (Human), UniProt P07711). Kind of data set: Cathepsin enzyme inhibition assay (fluorogenic peptide substrate Z-Val-Val-Arg-AMC). Conditions: enzyme 1 nM, substrate 20 μM, pH 6.5. It is filed as biochemical. As to the method: Enzyme activity is measured by observing the increase in fluorescence intensity caused by cleavage of a peptide substrate containing a fluorophore whose emission is quenched in the intact peptide.
Assay buffer: 100 mM potassium phosphate pH 6.5, EDTA-Na 5 mM, Triton X-100 0.001%, DDT 5 mM.
Enzymes (all at 1 nM): human and mouse Cathepsin S, Cat K, Cat B, Cat L
Substrate (20 μM): Z-Val-Val-Arg-AMC, except for Cat K which uses Z-Leu-Arg-AMC (both from Bachem).
AMC=7-Amino-4-Methyl-Coumarin.
Excitation 360 nm, Emission 465 nm.
Enzyme is added to the substance dilutions in 96-well microtitre plates and the reaction is started with substrate. […] IC50 are calculated by standard methods. The results are expressed in μM in the following table.

For data set [1] the following is noted: rcm bond, 16-membered ring, DCM, 50.0 °C.
The conditions of data set [2]: from C=CCOc1ccc(C[C@H](NC(=O)c2ccccc2OCC=C)C(=O)NC2(C#N)CC2)cc1; rcm bond; 16-membered ring; Grubbs II (0.3 eq); DCM; 2.88 mM; 50.0 °C.

Cathepsin L, sequence (P07711 114-333): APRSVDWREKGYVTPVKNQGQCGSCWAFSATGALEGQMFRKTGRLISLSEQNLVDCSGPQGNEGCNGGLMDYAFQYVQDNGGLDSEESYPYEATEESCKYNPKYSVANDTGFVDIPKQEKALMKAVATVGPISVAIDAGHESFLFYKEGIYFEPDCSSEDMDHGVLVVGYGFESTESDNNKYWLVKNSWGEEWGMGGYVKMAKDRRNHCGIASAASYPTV

The compound `COc1ccc2c(c1)CC/C=C/COc1ccc(cc1Cl)C[C@@H](C(=O)NC1(C#N)CC1)NC2=O` [Example 18, (E)-(S)-19-Chloro-9-methoxy-5-oxo-17-oxa-4-aza-tricyclo[16.2.2.0*6,11*]docosa-1(21),6,8,10,14,18(22),19-heptaene-3-carboxylic acid (1-cyano-cyclopropyl)-amide] yielded an IC50 against Cathepsin L of 0.0547 µM. The compound also came in with a ring closure, isolated yield in data set [1] (Grubbs II) of 48%.
`Cc1ccc2c(n1)SC/C=C/COc1ccc(cc1Cl)C[C@@H](C(=O)NC1(C#N)CC1)NC2=O` [Example 19, (E)-(S)-19-Chloro-9-methyl-5-oxo-17-oxa-12-thia-4,10-diaza-tricyclo[16.2.2.0*6,11*]docosa-1(21),6,8,10,14,18(22),19-heptaene-3-carboxylic acid (1-cyano-cyclopropyl)-amide] yielded a half-inhibitory concentration (IC50) against Cathepsin L of 0.026 µM. Further, the ring closure, isolated yield in data set [1] (from C=CCOc1ccc(C[C@H](NC(=O)c2ccc(C)nc2SCC=C)C(=O)NC2(C#N)CC2)cc1Cl, Grubbs II (0.3 eq)/Ti(OiPr)4 (0.6 eq), 1.15 mM) is 6%.
As to `N#CC1(NC(=O)[C@@H]2Cc3ccc(c(Cl)c3)OCC=CCOc3ccc(Br)cc3C(=O)N2)CC1`, in data set [1] (from C=CCOc1ccc(C[C@H](NC(=O)c2cc(Br)ccc2OCC=C)C(=O)NC2(C#N)CC2)cc1Cl, Grubbs II (0.3 eq), 2.15 mM), the ring closure, isolated yield came to 53%.
The compound `COC(=O)[C@@H]1Cc2ccc(c(Cl)c2)OC/C=C/COc2ccccc2C(=O)N1` yielded a ring closure, isolated yield in data set [1] (from C=CCOc1ccc(C[C@H](NC(=O)c2ccccc2OCC=C)C(=O)OC)cc1Cl, Grubbs II (0.3 eq), 2.76 mM) of 47%.
In data set [1] (from C=CCCN1CCC[C@H]1C(=O)N[C@@H](Cc1ccc(OCC=C)c(Cl)c1)C(=O)OC, Grubbs II (0.3 eq)/pTsOH (2 eq, in AcOH), 2.64 mM), `COC(=O)[C@@H]1Cc2ccc(c(Cl)c2)OC/C=C/CCN2CCCC2C(=O)N1` (some centres unmarked) yielded a ring closure, isolated yield of 87%.
Turning to `N#CC1(NC(=O)[C@@H]2Cc3ccc(c(Cl)c3)OCCCCOc3ccc(Cl)cc3C(=O)N2)CC1` [Example 11, (S)-8,19-Dichloro-5-oxo-12,17-dioxa-4-aza-tricyclo[16.2.2.0*6,11*]docosa-1(21),6,8,10,18(22),19-hexaene-3-carboxylic acid (1-cyano-cyclopropyl)-amide], inhibition at Cathepsin L was half-maximal at 0.0116 µM (IC50).
In turn, `CSc1ccc2c(c1)C(=O)N[C@H](C(=O)NC1(C#N)CC1)Cc1ccc(c(Cl)c1)OC/C=C/CO2` [Example 47, (E)-(S)-19-Chloro-8-methylsulfanyl-5-oxo-12,17-dioxa-4-aza-tricyclo[16.2.2.0*6,11*]docosa-1(21),6,8,10,14,18(22),19-heptaene-3-carboxylic acid (1-cyano-cyclopropyl)-amide] came in with an IC50 on Cathepsin L of 0.0016 µM. This IC50 lies about 7.2-fold lower than the previous one.
`N#CC1(NC(=O)[C@@H]2Cc3ccc(cc3)OC/C=C/COc3cccc(c3)C(=O)N2)CC1` [Example 2, (E)-(S)-5-Oxo-11,16-dioxa-4-aza-tricyclo[15.2.2.1*6,10*]docosa-1(20),6,8,10(22),13,17(21),18-heptaene-3-carboxylic acid (1-cyano-cyclopropyl)-amide] had an IC50 against Cathepsin L of 0.23 µM.
In turn, `N#CC1(NC(=O)[C@@H]2Cc3ccc(c(Cl)c3)OC/C=C/COc3ccc(F)c(F)c3C(=O)N2)CC1` [Example 45, (E)-(S)-19-Chloro-7,8-difluoro-5-oxo-12,17-dioxa-4-aza-tricyclo[16.2.2.0*6,11*]docosa-1(21),6,8,10,14,18(22),19-heptaene-3-carboxylic acid (1-cyano-cyclopropyl)-amide] had an IC50 at Cathepsin L of 0.0043 µM.
In turn, `N#CC1(NC(=O)[C@@H]2Cc3ccc(cc3)OC/C=C/COc3ccccc3C(=O)N2)CC1` [Example 1, (E)-(S)-5-Oxo-12,17-dioxa-4-aza-tricyclo[16.2.2.0*6,11*]docosa-1(21),6(11),7,9,14,18(22),19-heptaene-3-carboxylic acid (1-cyano-cyclopropyl)-amide] showed an IC50 against Cathepsin L of 0.0885 µM. The compound further displayed a ring closure, yield after HPLC in data set [2] of 20%.
Take `CC(C)(C)OC(=O)N1CC(c2ccc3c(c2)C(=O)N[C@H](C(=O)NC2(C#N)CC2)Cc2ccc(c(Cl)c2)OCCCCO3)C1` [Example 42, 3-[(S)-19-Chloro-3-(1-cyano-cyclopropylcarbamoyl)-5-oxo-12,17-dioxa-4-aza-tricyclo[16.2.2.0*6,11*]docosa-1(21),6,8,10,18(22),19-hexaen-8-yl]-azetidine-1-carboxylic acid tert-butyl ester]: on Cathepsin L, the midpoint of inhibition, the IC50, lay at 0.0255 µM.

The record behind these values is US9290467B2, “Cyclic amides” (Hoffmann-La Roche Inc., priority 2012, dated 2016).
